Test results taken from US9023843B2, “Antimicrobial compounds and methods of making and using the same” (Melinta Therapeutics, Inc., priority 2009, dated 2015).

test system: Eschericia coli strain ATCC25922; assay: standard microdilution assay to determine minimum inhibitory concentrations (MICs); format: cell-based; conditions: Escherichia coli, read-out: E. coli ATCC25922 MIC
Experimental: Minimum inhibitory concentrations (MICs) are determined by the microdilution method, typically in a final volume of 100 microliters, according to protocols outlined by The Clinical and Laboratory Standards Institute [CLSI; formerly the National Committee for Clinical Laboratory Standards (NCCLS)]. See CLSI: Methods for dilution antimicrobial susceptibility tests for bacteria that grow aerobically; approved standard-fifth edition. Wayne, Pa.: NCCLS; 2000. The assays can be also be performed in microtiter trays according to conventional methodologies as published by the CLSI. See CLSI. Methods for Dilution Antimicrobial Susceptibility Tests for Bacteria That Grow Aerobically; Approved Standard-Seventh Edition. CLSI Document M7-A7 [ISBN 1-56238-587-9] CLSI, 940 West Valley Road, Suite 1400, Wayne Pa. 19087-1898 USA, 2006).
The compounds of the present invention were tested for antimicrobial activity. The compounds were run against Eschericia coli strain ATCC25922 using a standard microdilution assay to determine minimum inhibitory concentrations (MICs). […] A “N/A” means that data is unavailable. It will be recognized by one skilled in the art that the compounds can be assessed against other bacterial organisms and that the presentation of data for activity against Eschericia coli is illustrative and in no way is intended to limit the scope of the present invention. The compounds of the present invention can be assayed against a range of other microorganisms depending upon the performance activity desired to be gathered. Furthermore, the “+”, “−”, and “N/A” representation and the selection of a cutoff value of 16 micrograms/ml is also illustrative and in no way is intended to limit the scope of the present invention.

Row | MIC [µg/mL] | SMILES
1 | < 16 | N=C(N)NCCCNC1CCC(n2cc3c(nc2=O)Nc2cc(C4CCNCC4)ccc2O3)CC1 (centres unmarked) [Compound 993]
2 | < 16 | N=C(N)NCCC(=O)NC1CCC(n2cc3c(nc2=O)Nc2cc(C4CCNCC4)ccc2O3)CC1 (centres unmarked) [Compound 1032]
3 | > 16 | COCCN(C(=O)CN1CCC(c2ccc3c(c2)Nc2nc(=O)n(C4CCC(N)CC4)cc2O3)CC1)C1CCNCC1 (centres unmarked) [Compound 1041]
4 | > 16 | NC1CCC(n2cc3c(nc2=O)Nc2cc(C4CCN(CC(=O)N(CC5CC5(F)F)C5CCNCC5)CC4)ccc2O3)CC1 (centres unmarked) [Compound 1042]
5 | < 16 | NCCC(=O)NC1CCC(n2cc3c(nc2=O)Nc2cc(C4CCNCC4)ccc2O3)CC1 (centres unmarked) [Compound 1086]
6 | > 16 | NC1CCC(n2cc3c(nc2=O)Nc2cc(C4CCN(CC(=O)N(Cc5ccc6[nH]cnc6c5)C5CCNCC5)CC4)ccc2O3)CC1 (centres unmarked) [Compound 1096]
7 | < 16 | N=C(N)NCCS(=O)(=O)NC1CCC(n2cc3c(nc2=O)Nc2cc(C4CCNCC4)ccc2O3)CC1 (centres unmarked) [Compound 1133]
8 | < 16 | N=C(N)NCCCN(C(=O)CCN)C1CCC(n2cc3c(nc2=O)Nc2cc(C4CCNCC4)ccc2O3)CC1 (centres unmarked) [Compound 1134]
9 | < 16 | N=C(N)NCCCN(C(=O)CCNC(=N)N)C1CCC(n2cc3c(nc2=O)Nc2cc(C4CCNCC4)ccc2O3)CC1 (centres unmarked) [Compound 1135]
10 | < 16 | N=C(N)NCCC(=O)N(CCCN)C1CCC(n2cc3c(nc2=O)Nc2cc(C4CCNCC4)ccc2O3)CC1 (centres unmarked) [Compound 1145]
11 | < 16 | NCCCN(C(=O)CCN)C1CCC(n2cc3c(nc2=O)Nc2cc(C4CCNCC4)ccc2O3)CC1 (centres unmarked) [Compound 1146]
12 | > 16 | NCCS(=O)(=O)NC1CCC(n2cc3c(nc2=O)Nc2cc(C4CCNCC4)ccc2O3)CC1 (centres unmarked) [Compound 1147]
13 | > 16 | O=C(CCN1CCNCC1)NC1CCC(n2cc3c(nc2=O)Nc2cc(C4CCNCC4)ccc2O3)CC1 (centres unmarked) [Compound 1192]
14 | > 16 | O=c1nc2c(cn1C1CCC(NCCCN3CCNCC3)CC1)Oc1ccc(C3CCNCC3)cc1N2 (centres unmarked) [Compound 1193]
15 | > 16 | Cc1ccc(CCCNC2CCC(n3cc4c(nc3=O)Nc3cc(C5CCNCC5)ccc3O4)CC2)o1 (centres unmarked) [Compound 1197]
16 | > 16 | Cc1ccc(CCCN(CCCc2ccc(C)o2)C2CCC(n3cc4c(nc3=O)Nc3cc(C5CCNCC5)ccc3O4)CC2)o1 (centres unmarked) [Compound 1198]
17 | > 16 | O=c1nc2c(cn1C1CCC(NCCCc3cnn[nH]3)CC1)Oc1ccc(C3CCNCC3)cc1N2 (centres unmarked) [Compound 1212]
18 | > 16 | O=C1OCCN1CCCNC1CCC(n2cc3c(nc2=O)Nc2cc(C4CCNCC4)ccc2O3)CC1 (centres unmarked) [Compound 1213]
19 | < 16 | O=c1nc2c(cn1C1CCC(NCCCN3CCCCC3)CC1)Oc1ccc(C3CCNCC3)cc1N2 (centres unmarked) [Compound 1234]
20 | < 16 | NCCCNC(=O)C1CCC(n2cc3c(nc2=O)Nc2cc(C4CCNCC4)ccc2O3)CC1 (centres unmarked) [Compound 1235]
21 | < 16 | N=C(N)NCCCNC(=O)C1CCC(n2cc3c(nc2=O)Nc2cc(C4CCNCC4)ccc2O3)CC1 (centres unmarked) [Compound 1236]
22 | < 16 | N=C(N)NCCNC(=O)C1CCC(n2cc3c(nc2=O)Nc2cc(C4CCNCC4)ccc2O3)CC1 (centres unmarked) [Compound 1237]

Row | MIC [µg/mL] | SMILES
23 | < 16 | NCCNC(=O)C1CCC(n2cc3c(nc2=O)Nc2cc(C4CCNCC4)ccc2O3)CC1 (centres unmarked) [Compound 1238]
24 | < 16 | NCCCN(CCCN)C1CCC(n2cc3c(nc2=O)Nc2cc(C4CCNCC4)ccc2O3)CC1 (centres unmarked) [Compound 1244]
25 | < 16 | NCCCNCC1CCC(n2cc3c(nc2=O)Nc2cc(C4CCNCC4)ccc2O3)CC1 (centres unmarked) [Compound 1269]
26 | > 16 | NC1CCC(Cn2cc3c(nc2=O)Nc2cc(C4CCNCC4)ccc2O3)CC1 (centres unmarked) [Compound 1368]
27 | > 16 | NCC1CCC(n2cc3c(nc2=O)Nc2cc(C4CCNCC4)ccc2O3)CC1 (centres unmarked) [Compound 1369]
28 | < 16 | NCCCN(CCCN)CC1CCC(n2cc3c(nc2=O)Nc2cc(C4CCNCC4)ccc2O3)CC1 (centres unmarked) [Compound 1370]
29 | > 16 | CN(C)CCCOc1cccc2c1Nc1nc(=O)n(C3CCC(CN)CC3)cc1O2 (centres unmarked) [Compound 1421]
30 | > 16 | CC(=O)NCCOc1cccc2c1Nc1nc(=O)n(C3CCC(CN)CC3)cc1O2 (centres unmarked) [Compound 1426]
31 | > 16 | NCCOc1cccc2c1Nc1nc(=O)n([C@H]3CC[C@H](CN)CC3)cc1O2 [Compound 1427]
32 | > 16 | NC[C@H]1CC[C@H](n2cc3c(nc2=O)Nc2c(OCCCN4CCNCC4)cccc2O3)CC1 [Compound 1441]
33 | > 16 | NCCCOc1cccc2c1Nc1nc(=O)n([C@H]3CC[C@H](CN)CC3)cc1O2 [Compound 1449]
34 | > 16 | NC[C@H]1CC[C@H](n2cc3c(nc2=O)Nc2c(OCCCCl)cccc2O3)CC1 [Compound 1450]
35 | > 16 | NC[C@H]1CC[C@H](n2cc3c(nc2=O)Nc2c(OCc4ccccc4)cccc2O3)CC1 [Compound 1467]
36 | > 16 | COc1cccc2c1Nc1nc(=O)n([C@H]3CC[C@H](CN)CC3)cc1O2 [Compound 4000c]
37 | > 16 | NC[C@H]1CC[C@H](n2cc3c(nc2=O)Nc2c(OCCNC(N)=O)cccc2O3)CC1 [Compound 4001c]
38 | > 16 | NC[C@H]1CC[C@H](n2cc3c(nc2=O)Nc2c(OCCNC(=O)NCc4ccccc4)cccc2O3)CC1 [Compound 4002c]
39 | > 16 | NC[C@H]1CC[C@H](n2cc3c(nc2=O)Nc2c(OCCCOCc4ccccc4)cccc2O3)CC1 [Compound 4003c]
40 | < 16 | N=C(N)NCCCN[C@H]1CC[C@H](n2cc3c(nc2=O)Nc2c(OCCN)cccc2O3)CC1 [Compound 4004c]
41 | > 16 | NCCOc1cccc2c1Nc1nc(=O)n([C@H]3CC[C@H](N)CC3)cc1O2 [Compound 4005c]
42 | < 16 | N=C(N)NCCCNC(=O)[C@H]1CC[C@H](n2cc3c(nc2=O)Nc2c(OCCN)cccc2O3)CC1 [Compound 4006c]
43 | > 16 | NCCCNC(=O)[C@H]1CC[C@H](n2cc3c(nc2=O)Nc2c(OCCN)cccc2O3)CC1 [Compound 4007c]
44 | > 16 | N=C(N)NCCCNC(=O)[C@H]1CC[C@H](n2cc3c(nc2=O)Nc2c(CCCN)cccc2O3)CC1 [Compound 4008c]
